# Like-named read-outs stand apart in the source and are kept apart here.
# Legend:
# [1] = biological target: T1, CCK receptor (pancreas) (Rattus norvegicus, UniProt P30551); test: biochemical; type: binding; conditions: rat pancreas membranes; for IC50: 50 pM 125I-CCK-8, 25°C 2 hours
# T1 construct: The whole pancreas was dissected free of fat tissue and was homogenized; from tissue; host or cells: rat pancreas membrane homogenate
# T1 sequence (P30551 1-444): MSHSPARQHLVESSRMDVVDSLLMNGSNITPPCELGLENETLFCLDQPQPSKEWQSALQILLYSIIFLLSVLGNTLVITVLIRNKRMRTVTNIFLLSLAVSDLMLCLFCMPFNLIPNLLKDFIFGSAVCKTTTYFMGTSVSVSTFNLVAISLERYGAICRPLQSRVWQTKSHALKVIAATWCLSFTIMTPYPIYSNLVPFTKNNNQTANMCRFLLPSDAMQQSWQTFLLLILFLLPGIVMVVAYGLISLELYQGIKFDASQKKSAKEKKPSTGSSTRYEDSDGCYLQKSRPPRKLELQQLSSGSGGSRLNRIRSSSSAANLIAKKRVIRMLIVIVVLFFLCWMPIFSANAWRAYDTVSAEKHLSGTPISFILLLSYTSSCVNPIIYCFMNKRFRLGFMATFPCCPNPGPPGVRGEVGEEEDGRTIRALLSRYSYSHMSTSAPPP
# Method: CCK-8 sulphated was radiolabelled with ¹²⁵I-Bolton Hunter reagent (2000 Ci/mmole). Receptor binding was performed according to Chang and Lotti (Proc. Natl. Acad. Sci. 83, 4923-4926, 1986) with minor modifications.
# Male Sprague-Dawley rats (150-200g) were sacrificed by decapitation. The whole pancreas was dissected free of fat tissue and was homogenized in 25 volumes of ice-cold 10 mM N-2-hydroxyethyl-piperazine-N′-2-ethane sulphonic acid (HEPES) buffer with 0.1% soya bean trypsin inhibitor (pH 7.4 at 25°C) with a Kinematica Polytron. The homogenates were centrifuged at 47,800 g for 10 min. Pellets were resuspended in 10 volumes of binding assay buffer (20mM (HEPES)), 1mM ethylene glycol-bis-(β-aminoethylether-N,N′-tetraacetic acid) (EGTA), 5mM MgCl₂, 150 mM NaCl, bacitracin 0.25 mg/ml, soya bean trypsin inhibitor 0.1 mg/ml, and bovine serum albumin 2 mg/ml pH 6.5 at 25°C) using a Teflon (trademark) homogenizer, 15 strokes at 500 rpm. The homogenate was further diluted in binding assay buffer to give a final concentration of 0.5 mg original wet weight/1 ml buffer. […] All assays were run in duplicate. The reaction mixtures were incubated at 25°C for 2 hours and the reaction terminated by rapid filtration (Brandell 24 well cell harvester) over Whatman GF/C filters, washing 3 x 4 mls with ice-cold 100 Mm NaCl. The radioactivity on the filters was counted with a LKB gamma counter.
# (§1) Drug displacement studies were performed with at least 10 concentrations of compounds of Formula I and the IC₅₀ values were determined by regression analysis IC₅₀ refers to the concentration of the compound required to inhibit 50% of specific binding of ¹²⁵I-CCK-8.
# [2] = biological target: T2, Gastrin Receptor (Cavia porcellus, UniProt H0VZC5); test: Gastrin Receptor Binding in Guinea Pig Gastric Glands, 125I-gastrin; parameters: from tissue; host or cells: isolated guinea pig gastric mucosal glands; conditions: 0.1 nM 125I-gastrin, 25°C 30 minutes
# T2 sequence (H0VZC5 1-426): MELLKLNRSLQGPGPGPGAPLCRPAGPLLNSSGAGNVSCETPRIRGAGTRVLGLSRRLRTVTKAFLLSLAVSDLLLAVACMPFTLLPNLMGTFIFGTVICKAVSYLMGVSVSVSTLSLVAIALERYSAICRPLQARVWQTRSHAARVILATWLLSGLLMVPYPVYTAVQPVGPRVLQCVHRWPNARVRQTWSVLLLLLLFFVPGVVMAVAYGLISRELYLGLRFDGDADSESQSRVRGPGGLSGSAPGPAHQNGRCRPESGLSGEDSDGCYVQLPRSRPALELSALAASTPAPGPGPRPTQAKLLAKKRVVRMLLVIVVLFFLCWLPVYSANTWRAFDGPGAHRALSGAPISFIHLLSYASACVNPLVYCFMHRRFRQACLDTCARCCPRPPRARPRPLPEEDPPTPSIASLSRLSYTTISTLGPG
# Method: Gastrin antagonist activity of compounds of Formula I was determined using the following assay.
# Guinea pig gastric mucosal glands were prepared by the procedure of Chang et. al., Science, 230, 177-179 (1985) with slight modifications. […] The tissues were passed twice through a 5 ml syringe to liberate the gastric glands, and then filtered through Nitex (trademark) #202 gauge nylon mesh. The filtered glands were centrifuged at 272 g for 5 minutes and washed twice by resuspension in 25 ml buffer and centrifugation.
# The washed guinea pig gastric glands prepared as above were resuspended in 25 ml of standard buffer. For binding studies, to 250 µl of gastric glands, 30 µl of buffer (for total binding) or gastrin (3 µM final concentration, for nonspecific binding) or test compound and 20 µl of ¹²⁵I-gastrin (NEN, 2200 Ci/mmole, 0.1 nM final concentration) were added. All assays were run in triplicate. […] The reaction mixtures, after incubation at 25°C for 30 minutes in a shaking water bath were rapidly filtered (Brandell 24 well cell harvester) over Whatman G/F B filters presoaked in assay buffer and immediately washed further with 3 x 4 ml of 100 mM ice cold NaCl. The radioactivity on the filters was measured using a LKB gamma counter.
# [3] = biological target: T3, CCK receptor (brain, cortex) (Cavia porcellus, UniProt H0VZC5); test: biochemical; type: binding, guinea pig
# T3 construct: the cortex was removed and homogenized in 25 mL ice-cold 0.32 M sucrose; from tissue; host or cells: guinea pig brain cortex P2 membrane pellet
# T3 sequence (H0VZC5 1-426): T2 sequence (H0VZC5 1-426)
# Method: CCK-8 sulphated was radiolabelled and the binding was performed according to the description for the pancreas method with minor modifications.
# Male Hartley guinea pigs (300-500g) were sacrificed by decapitation and the cortex was removed and homogenized in 25 mL ice-cold 0.32 M sucrose. The homogenates were centrifuged at 1000 g for 10 minutes and the resulting supernatant was recentrifuged at 20,000 g for 20 minutes. The P₂ pellet was resuspended in binding assay buffer (20mM HEPES, 5 mM MgCl₂, 0.25 mg/ml bacitracin, 1 mM EGTA pH 6.5 at 25°C), using a Teflon (trademark) homogenizer (5 strokes at 500 rpm) to give a final concentration of 10 mg original wet weight/1.2 ml buffer. […] All assays were run in duplicate. The reaction mixtures were incubated at 25°C for 2 hours and then the reaction was terminated by rapid filtration (Brandell 24 well cell harvester) on Whatman GF/C filters with 3 x 5 ml washes of cold 100 mM NaCl. The radioactivity on the filters was counted with a LKB gamma counter.
# as §1
# [4] = guinea pig cortex membranes, 50 pM 125I-CCK-8, 25°C 2 hours, read-out: IC50 ^125I-CCK Brain
Molecule,IC50 [1] [nM],IC50 [2] [nM],"IC50 [3, 4] [nM]",IC50 [3] [nM],"inhibition at 3 µM ([1]; at 3μM, read-out: inhibition of ^125I-CCK binding, Pancreas) [%]"
"CN1C(=O)C(NC(=O)Nc2cccc(-c3nn[nH]n3)c2)N=C(C2CCCCC2)c2ccccc21 (racemic) [Example 4, N-[3(R,S)-5-Cyclohexyl-2,3-dihydro-1-methyl-2-oxo-1H-1,4-benzodiazepin-3-yl] N′-[3-tetrazol-5-ylphenyl]urea]",11,0.44,0.09,–,–
"CC(=O)NS(=O)(=O)c1cccc(NC(=O)NC2N=C(C3CCCCC3)c3ccccc3N(C)C2=O)c1 (racemic) [Example 15, N-[3(R,S)-5-Cyclohexyl-2,3-dihydro-1-methyl-2-oxo-1H-1,4-benzodiazepin-3-yl] N′-[3-(methylcarbonylaminosulphonyl)phenyl] urea]",19.8,1.06,–,0.4,–
"CN1C(=O)C(NC(=O)Nc2cccc(S(=O)(=O)NC(=O)C(F)(F)F)c2)N=C(C2CCCCC2)c2ccccc21 (racemic) [Example 17, N-[3(R,S)-5-Cyclohexyl-2,3-dihydro-1-methyl-2-oxo-1H-1,4-benzodiazepin-3-yl] N′-[3-(trifluoromethylcarbonylaminosulphonyl)phenyl] urea]",137,10.5,0.9,–,–
"CCN1C(=O)C(NC(=O)Nc2cccc(S(=O)(=O)NC(C)=O)c2)N=C(C2CCCC2)c2ccccc21 (racemic) [Example 20, N-[3(R,S)-5-Cyclopentyl-2,3-dihydro-1-ethyl-2-oxo-1H-1,4-benzodiazepin-3-yl] N′-[3-(methylcarbonylaminosulphonyl)phenyl] urea]",953,1.77,1.4,–,–
"CN1C(=O)[C@H](NC(=O)Nc2cccc(C(=O)NS(=O)(=O)c3ccccc3)c2)N=C(C2CCCCC2)c2ccccc21 [Example 27, (-)-N-[3(R)-5-Cyclohexyl-2,3-dihydro-1-methyl-2-oxo-1H-1,4-benzodiazepin-3-yl] N′-[3-(phenylsulphonylaminocarbonyl)phenyl]urea]",–,1.34,–,0.38,19
"N-(3(R,S)-5-Cyclopentyl-2,3-dihydro-1-methyl-2-oxo-1H-1,4-benzodiazepin-3-yl] N′-[3-(1,1-dimethylethylsulphonylaminocarbonyl)phenyl] urea [Example 39]",270,1.18,0.56,–,–

# From patent EP0514133A1, “Benzodiazepine derivatives, compositions containing them and their use in therapy” (priority 1991, dated 1992)
